# Experiments:
# [1] = tested on: r(GC)8; test: SPR binding kinetics to r(GC)8
# Procedure: (§1) The binding of 2H-K4NMe to various RNAs including r(CUG)12, r(CAG)12, r(AU)12 and r(GC)δ was studied by surface plasmon resonance (SPR) spectrometry. […] In summary, 2H-K4NMe is selective for r(CUG)12 by ˜30-100-fold over the other RNAs studied (Table 2). In general, it has a faster association rate (kon) and a slower dissociation rate (koff) when binding to r(CUG)12 compared to the other RNAs.
# (§2) On rates, off rates and Kobs values were measured using a ForteBio OctetRed spectrophotometer and Streptavidin SA dip-and-read biosensors (ForteBio). Sensors were pre-equilibrated in 1X Kinetics Buffer (ForteBio) prior to beginning measurements. 5′-Biotinylated r(CUG)12 was folded by heating in 1X Kinetics Buffer at 60° C. for 5 min followed by slow cooling to room temperature on the bench top. Measurements were completed by incubating sensors sequentially in 200 μL of: 1X Kinetics Buffer, 540 nM 5′-biotinylated RNA, 1X Kinetics Buffer, compound of interest or MBNL1 (varying concentrations; seven 1:2 dilutions in 1X Kinetics Buffer), and finally 1X Kinetics Buffer. Data were fit using ForteBio's Data Analysis 7.0 software. MBNL1 and II (monomer) data were fit using a 1:1 model. This model fits one analyte in solution binding to one binding site on the surface. 2H-K4NMe and 2H-4 data were fit using a 2:1 heterogeneous ligand model. This model fits the binding of one analyte in solution to two different binding sites on the surface. Kinetic parameters are calculated for both interactions.
# [2] = tested on: r(CUG)12-MBNL1 complex; test: TR-FRET assay, disruption of the r(CUG)12-MBNL1 complex; assay type: biochemical; details: among third generation compounds (2H-K4NPr derivatives)
# Procedure: As mentioned above, DM1 is caused by sequestration of MBNL1 by r(CUG)^exp.^28, 32-37 Therefore, in vitro potency was determined by measuring displacement of MBNL1 from a r(CUG)12-MBNL1 complex using a time-resolved FRET (TR-FRET) assay.^15, 47 Each dimeric compound disrupts the r(CUG)12-MBNL1 complex with IC50's between ˜3 and ˜300 μM (FIG. 3). […] This may be due to the presence of imino protons that can favorably interact with the phosphodiester backbone of RNA (FIG. 2).
# Initial in vitro activity of modularly assembled compounds was assessed by disruption of the r(CUG)^exp-MBNL1 complex using a previously reported TR-FRET assay.^15, 47 The ratio of fluorescence intensity of 545 and 665 nm in the presence and absence of compound were used to calculate percent inhibition.
# The resulting curves were fit to the following equation to determine IC50 values:
# [formula] where y is the ratio of fluorescence intensities at 545 nm and 665 nm (F545/F665), x is the concentration of small molecule, B is the F545/F665 ratio reflective of the maximum amount of FRET observed (absence of small molecule); A is the F545/F665 ratio reflective of the minimum amount of FRET observed (absence of RNA, protein, and small molecule; only antibodies are present); and the IC50 is the concentration of small molecule where half of the protein is displaced by small molecule. Improvement of DM1-Associated Splicing Defects in a DM1 Cell Culture Model Using RT-PCR.
# [3] = tested on: Clcn1 and Serca1 (Atp2a1) alternative splicing in HSA^LR mice; test: Alternative pre-mRNA splicing in DM1 mouse model (HSA^LR), RT-PCR of vastus muscle; assay type: in vivo
# From the text: 2H-K4NMe was selected for animal studies based on overall performance in cell-based assays, increased proteolytic stability as compared to 2H-KNH and decreased structural complexity compared to 2H-K4NPr. A mouse model of DM1 has been reported in which 250 rCUG repeats are expressed using an actin promoter (human skeletal actin long repeat, HSA^LR).^24 The presence of these repeats results in dysregulation of alternative splicing in the muscle-specific chloride ion channel (Clcn1) and the sarcoplasmic/endoplasmic reticulum calcium ATPase 1 (Serca1/Atp2a1) pre-mRNAs. Clcn1 exon 7a is excluded ˜100% in mRNA from normal adult mice; DM1 mice have an exclusion rate of ˜50%. After DM1 mice were treated for 7 days with 100 mg/kg/d of 2H-K4NMe, the exclusion rate of exon 7A was restored to 71% (p-value=0.007) (FIGS. 7 and 11). Mis-splicing of Serca1 exon 21 was also partially rescued. The exon 22 inclusion rate is ˜100% in normal adult mice and ˜11.8% in DM1 mice.
# All experimental procedures, mouse handling, and husbandry were completed in accordance with the Association for Assessment and Accreditation of Laboratory Animal Care. A mouse model for DM1, HSA^LR in line 20b, was used.^24 HSA^LR mice express human skeletal actin RNA with 250 CUG repeats in the 3′ UTR. Age- and gender-matched HSA^LR mice were injected intraperitoncally with 100 mg/kg 2H-K4NMe in water for treatment or 0.9% NaCl for control once per day for 7 days. Mice were sacrificed one day after the last injection, and the vastus muscle was obtained. RNA was extracted from the vastus tissue, and cDNA was synthesized as previously described.^65
# PCR amplification was carried out for 26-30 cycles with the following primer pairs: Clcn1 forward 5′-[…] (SEQ ID NO:5) and reverse 5′-(6FAM)[…] (SEQ ID NO:6); Secral forward 5′-(6FAM)[…] (SEQ ID NO:7) and reverse 5′- […] (SEQ ID NO:8). The PCR products were separated by agarose gel electrophoresis. The gel was scanned with a laser fluorimager (Typhoon, GE Healthcare), and the products were quantified using ImageQuant.
# [4] = tested on: r(CAG)12; test: SPR binding kinetics to r(CAG)12
# Procedure: as §1, §2
# [5] = r(GC)8, two component binding isotherm
# [6] = r(CAG)12, two component binding isotherm
structure (smiles),measurement,setting,value
C[C@@H](C(=O)N(C)[C@@H](C)C(=O)N(C)[C@@H](C)C(=O)N(C)[C@@H](C)C(=O)N[C@@H](CCCCNC(=O)CCCOc1cccc(-c2nc3cc(-c4nc5cc(N6CCN(C)CC6)ccc5[nH]4)ccc3[nH]2)c1)C(N)=O)N(C)C(=O)CCCOc1cccc(-c2nc3ccc(-c4nc5cc(N6CCN(C)CC6)ccc5[nH]4)cc3[nH]2)c1 [Compound 2H-K4NMe],Selectivity for r(CUG)12,[1]; over r(GC)8,107
same,kon (1),[1]; r(GC)8,58600 M⁻¹ s⁻¹
same,kon (2),[1]; r(GC)8,24800 M⁻¹ s⁻¹
same,Kd,"[1]; r(GC)8, read-out: Kobs (1)",1400 nM
same,koff (1),[1]; [5],0.0822 s⁻¹
same,koff (2),[1]; [5],0.105 s⁻¹
same,in vitro potency rank in TR-FRET assay,[2],most potent
same,effect on alternative splicing of Itgb1 and CapZB mRNAs (not regulated by MBNL1),[3]; 100 mg/kg/d for 7 days,did not affect
same,Serca1 exon 22 inclusion rate,"[3]; 100 mg/kg/d for 7 days, DM1 mice ˜11.8%, normal ˜100%",21.5%
same,Clcn1 exon 7a exclusion rate,"[3]; 100 mg/kg/d intraperitoneally for 7 days, DM1 mice ˜50%, normal ˜100%",71%
same,Selectivity for r(CUG)12,[4]; over r(CAG)12,63
same,kon (1),[4]; r(CAG)12,83800 M⁻¹ s⁻¹
same,kon (2),[4]; r(CAG)12,1630 M⁻¹ s⁻¹
same,Kd,"[4]; r(CAG)12, read-out: Kobs (1)",829 nM
same,koff (1),[4]; [6],0.0695 s⁻¹
same,koff (2),[4]; [6],0.0847 s⁻¹

# Reference: patent US9795687B2, “Modularly assembled small molecules for the treatment of myotonic dystrophy type 1” (The Scripps Research Institute, priority 2013, dated 2017)
